Test results: publication PMC13224317 (SLAS discovery : advancing life sciences R & D, 2025)
Values joined by “and” are separate entries in the source; they are usually repeats but may differ in a detail not shown here. Identical values can stand only once. Like-named read-outs stand apart in the source and are kept apart here.

Legend:
[1] = tested on: icSARS-CoV-2-nLuc; assay: microbe, parasite or virus in culture; assay type: cell-based, SARS-CoV-2
[2] = tested on: icSARS-CoV-2-nLuc; assay type: cell-based, SARS-CoV-2
[3] = tested on: C3 cell line; assay: Cytotoxicity toward the C3 cell line (single point at 10 μM and CC50); assay type: cell-based; conditions: raw well reading, duplicate wells
Protocol: The rate of false positive hits was 2.5% between the two biological replicates. […] The 3 compounds have CC50 equal to- or higher than 36 μM. Based on available information, these three compounds have not been tested against SARS-CoV-2 nor have any reports of antiviral activity, and therefore warrant further investigation.

[4] = tested on: icSARS-CoV-2-nLuc; assay type: cell-based, SARS-CoV-2; remark: listed apart in the source
[5] = tested on: icSARS-CoV-2-nLuc; assay: microbe, parasite or virus in culture; assay type: cell-based, SARS-CoV-2; conditions: Severe acute respiratory syndrome coronavirus 2, 48 h, read-out: IC50 against icSARS-CoV-2-nLuc, immunofluorescence data
[6] = Severe acute respiratory syndrome coronavirus 2, A549-ACE2, read-out: IC50, susceptibility of icSARS-CoV-2-nLuc to reference drugs, luminescence readout

Structure (SMILES): CC(C)(C)NC(=O)N[C@H](C(=O)N1C[C@H]2[C@@H]([C@H]1C(=O)NC(CC1CCC1)C(=O)C(N)=O)C2(C)C)C(C)(C)C (some centres unmarked) [Boceprelvir, Boceprevir]
- IC50 [1, 6]: 3 µM
- raw nLuc luminescence signal per well, dose response ([1]; concentration 0.444444 µM): 1318016 and 1552909 and 1027714 and 1937158 and 1341520 and 1697592 and 1866146 and 1427750
- raw nLuc luminescence signal per well, dose response ([1]; concentration 1.33333 µM): 1081320 and 1354101 and 1808712 and 2111860 and 1262757 and 1236512 and 1094043 and 1751641
- raw nLuc luminescence signal per well, dose response ([1]; concentration 12 µM): 325338 and 397893 and 288277 and 313675 and 434098 and 457388 and 421160 and 498406
- raw nLuc luminescence signal per well, dose response ([1]; concentration 36 µM): 152331 and 158422 and 131796 and 134954 and 143730 and 155578 and 143192 and 145460

Structure (SMILES): CC(C)C(=O)OC[C@H]1O[C@@H](n2ccc(NO)nc2=O)[C@H](O)[C@@H]1O [Molnupiravir]
- IC50 [1, 6]: 1.2 µM
- raw nLuc luminescence signal per well, dose response ([1]; concentration 4 µM): 595475 and 830276 and 640577 and 536261 and 913575 and 492391 and 665617 and 629700
- raw nLuc luminescence signal per well, dose response ([1]; concentration 12 µM): 258630 and 294602 and 224846 and 411089 and 320496 and 281484 and 318686 and 264637
- raw nLuc luminescence signal per well, dose response ([1]; concentration 36 µM): 206765 and 173526 and 155560 and 157303 and 194898 and 197104 and 194373 and 153593

Structure (SMILES): CCCC[C@H](NC(=O)[C@@H]1[C@@H]2[C@H](CN1C(=O)[C@@H](NC(=O)NC1(CS(=O)(=O)C(C)(C)C)CCCCC1)C(C)(C)C)C2(C)C)C(=O)C(=O)NC1CC1 [Naraprelvir]
- raw nLuc luminescence signal per well, dose response ([1]; concentration 0.00548697 µM): 1369356 and 1475085 and 1731318 and 2527784 and 1481798 and 1643468 and 2199354 and 1849240
- raw nLuc luminescence signal per well, dose response ([1]; concentration 0.0493827 µM): 1943993 and 1719572 and 1531026 and 1265407 and 2037762 and 2296036 and 2164802 and 2297300
- raw nLuc luminescence signal per well, dose response ([1]; concentration 36 µM): 156020 and 155359 and 134274 and 128833 and 143226 and 151190 and 148617 and 136366

Structure (SMILES): CCCC[C@H](NC(=O)[C@@H]1[C@@H]2[C@H](CN1C(=O)[C@@H](NC(=O)NC1(CS(=O)(=O)C(C)(C)C)CCCCC1)C(C)(C)C)C2(C)C)C(=O)C(=O)NC1CC1 [Narlaprevir]
- IC50 [1, 6]: 2 µM

Structure (SMILES): CC(C)(C)[C@H](NC(=O)C(F)(F)F)C(=O)N1C[C@H]2[C@@H]([C@H]1C(=O)N[C@H](C#N)C[C@@H]1CCNC1=O)C2(C)C [Nirmatrelvir]
- IC50 [1, 6]: 0.03 µM
- raw nLuc luminescence signal per well, dose response ([1]; concentration 0.148148 µM): 129461 and 120874 and 136852 and 130464 and 147289 and 142579 and 149179 and 144629
- raw nLuc luminescence signal per well, dose response ([1]; concentration 0.444444 µM): 144250 and 143681 and 125477 and 126336 and 137581 and 142321 and 138240 and 131508
- raw nLuc luminescence signal per well, dose response ([1]; concentration 1.33333 µM): 118306 and 118449 and 125083 and 124306 and 125230 and 130577 and 130784 and 122912
- raw nLuc luminescence signal per well, dose response ([1]; concentration 4 µM): 141288 and 139348 and 122581 and 121573 and 133806 and 135394 and 143645 and 132419
- raw nLuc luminescence signal per well, dose response ([1]; concentration 12 µM): 120474 and 114610 and 123671 and 120946 and 130686 and 127115 and 126419 and 123917
- raw nLuc luminescence signal per well, dose response ([1]; concentration 36 µM): 145649 and 139944 and 128235 and 120973 and 144302 and 134374 and 139812 and 128239

Structure (SMILES): CCC(CC)COC(=O)[C@H](C)N[P@](=O)(OC[C@H]1O[C@@](C#N)(c2ccc3c(N)ncnn23)[C@H](O)[C@@H]1O)Oc1ccccc1 [REM, Remdesivir]
- %Spec [2]: 89.5% and 90.0% and 90.1%
- Luminescence signal, Mean (Low signal) [2]: 181028.44 and 176326.81 and 171413.00
- Luminescence signal, Mean (Mid signal) [2]: 237318.53 and 220683.44 and 197501.22
- MMV hits Cytotoxicity testing, raw plate signal ([3]; REM 0.0175781 µM): 281684 and 292421
- MMV hits Cytotoxicity testing, raw plate signal ([3]; REM 0.0351562 µM): 291406 and 276805
- MMV hits Cytotoxicity testing, raw plate signal ([3]; REM 0.0703125 µM): 281356 and 294787
- MMV hits Cytotoxicity testing, raw plate signal ([3]; REM 0.140625 µM): 287615 and 296564
- MMV hits Cytotoxicity testing, raw plate signal ([3]; REM 0.28125 µM): 294079 and 296093
- MMV hits Cytotoxicity testing, raw plate signal ([3]; REM 0.5625 µM): 294522 and 291744
- MMV hits Cytotoxicity testing, raw plate signal ([3]; REM 1.125 µM): 302792 and 294805
- MMV hits Cytotoxicity testing, raw plate signal ([3]; REM 2.25 µM): 325677 and 303163
- MMV hits Cytotoxicity testing, raw plate signal ([3]; REM 4.5 µM): 318660 and 288026
- Low (luminescence signal) [4]: 335845.000 and 285428.000 and 332082.000 and 282797.000
- Mid % [4]: 82.63% and 75.37% and 74.20% and 71.84%
- Mid (luminescence signal) [4]: 685741.000 and 855540.000 and 882878.000 and 938084.000
- Midpc [4]: 82.63 and 75.37 and 74.20 and 71.84
- IC50 [5]: 0.11 µM
- antiviral activity (raw luminescence signal per well) [1]: 150661 and 137685 and 146593 and 141302
- IC50 ([1]; Severe acute respiratory syndrome coronavirus 2, A549-ACE2, 24 h, read-out: IC50 against icSARS-CoV-2-nLuc, luminescence data): 0.11 µM
- inhibition at 10 µM ([1]; Severe acute respiratory syndrome coronavirus 2, A549-ACE2, 24 h, read-out: inhibition of the virus growth, single point screening): ≥ 90%
- raw nLuc luminescence signal per well, dose response ([1]; concentration 0.444444 µM): 158425 and 172179 and 190756 and 205337
- raw nLuc luminescence signal per well, dose response ([1]; concentration 4 µM): 140393 and 141108 and 138540
- raw nLuc luminescence signal per well, dose response ([1]; concentration 36 µM): 142704 and 141754 and 139812

Structure (SMILES): CC(C)c1nc(CN(C)C(=O)N[C@H](C(=O)N[C@@H](Cc2ccccc2)C[C@H](O)[C@H](Cc2ccccc2)NC(=O)OCc2cncs2)C(C)C)cs1 [Ritonavir]
- IC50 [1, 6]: 7.2 µM
- raw nLuc luminescence signal per well, dose response ([1]; concentration 0.444444 µM): 2035673 and 1546345 and 1888256 and 1167395 and 1955627 and 1676062 and 1569839 and 1463523
- raw nLuc luminescence signal per well, dose response ([1]; concentration 4 µM): 1601511 and 1681837 and 928783 and 1028382 and 1282975 and 1526902 and 1006334 and 1132442
- raw nLuc luminescence signal per well, dose response ([1]; concentration 36 µM): 183316 and 177778 and 167818 and 167859 and 159406 and 217854 and 184869 and 201752
